Laboratory results taken from article PMC8308784, “Novel Purine Chemotypes with Activity against Plasmodium falciparum and Trypanosoma cruzi” (Pharmaceuticals, 2021).
Like-named read-outs stand apart in the source and are kept apart here.

How the values were obtained:
[1] = test system: T. cruzi Tulahuen strain expressing β-galactosidase; test: anti-T. cruzi dose-response growth inhibition assay (Vero cells plus trypomastigotes, CPRG readout); type: cell-based
Procedure: (§1) T. cruzi parasites from the Tulahuen strain (discrete typing unit (DTU) VI) expressing β-galactosidase were maintained in culture by the infection of LLC-MK2 cells in DMEM supplemented with 2% FBS and 1% penicillin–streptomycin–glutamine (PSG), as described in [52]. When free-swimming trypomastigotes were released to the culture medium, they were centrifuged for 7 min at 2500 rpm and allowed to swim out of the pellet. Trypomastigotes were used to maintain the parasite cycle, or for the performance of the antiparasitic assays.
(§2) T. cruzi growth was primarily analyzed under three different concentrations (100, 10, and 1 mM) of the 81 compounds. Conditions were tested in triplicate for every concentration. Z-values varied between 0.81 and 0.92 in the different plates analyzed. Selected compounds (34.6% potential hit rate) were further analyzed via standard growth inhibition assays. The Z-values of dose–response assays correlated with those previously reported. For both assays, Vero cells and trypomastigotes from the Tulahuen T. cruzi strain expressing β-galactosidase were harvested, centrifuged, and resuspended in DMEM without phenol red supplemented with 1% PSG, 2% FBS, 1 mM sodium pyruvate, and 25 mM HEPES. Vero cells and trypomastigotes were counted, diluted at a concentration of 1 × 10^6 cells/mL each, and mixed 1:1 (v/v). Then, 100 μL of that mixture was added per well to the plates already containing the compounds. Each well contained 50,000 host cells and 50,000 parasites, i.e., multiplicity of infection (MOI) = 1. BNZ was used as control of maximal drug growth inhibition in each round, whereas each plate contained its own negative control (maximum parasite growth; Vero cells plus parasites without drugs) and positive control (minimum parasite growth; trypomastigote forms alone marking an enzymatic zero time or baseline galactosidase activity). After four days at 37 °C, 50 µL of a PBS solution containing 0.25% NP40 and 500 µM chlorophenol red-β-D-galactopyranoside (CPRG) substrate were added per well [32]. Plates were incubated at 37 °C for 4 h, and their absorbance read out at 590 nm using an Epoch Gene5 spectrophotometer.
(§3) Absorbance values derived from the anti-T. cruzi assays and fluorescence values from the anti-P. falciparum and cell toxicity assays were normalized to the controls. In the primary screening at three fixed doses, the compounds’ inhibitory activity was expressed as a percentage of the negative control (100% parasitic growth). In dose–response assays, the compounds’ IC50 and TC50 values were determined with GraphPad Prism 7 software (version 7.00, 2016), using a non-linear regression analysis model defined by the following equation: Y=100 ÷(1+10^((LogIC50−X)×HillSlope))

[2] = test system: T. cruzi intracellular amastigotes; test: Antiamastigote growth inhibition assay; type: cell-based; settings: intracellular amastigotes in Vero cells; mean (SD); read-out: T. cruzi IC50 b (antiamastigote assay)
Procedure: Vero cells were seeded in T-175 flasks (5 × 10^6 cells per flask) in DMEM supplemented with 1% penicillin–streptomycin and 10% FBS, and cultured for 24 h. Then, cells were washed once with PBS, and free-swimming trypomastigotes (1 × 10^7 trypomastigotes per flask; MOI = 1) in assay medium were added and allowed 18 h to infect. After that, infected cell monolayers were washed with PBS and detached. Cells were counted and diluted to a concentration of 5 × 10^5 cells per mL, before adding 100 µL per well to test plates already containing the drugs dispensed as described above. In all cases, we included BNZ as control drug, and each plate contained its own negative (Vero cells and parasites) and positive (Vero cells) controls.
as §3

P. falciparum 3D7 [3] = test: P. falciparum primary screening at three fixed concentrations; type: cell-based; settings: average of at least three experiments; for activity at 1 µM / activity at 10 µM / activity at 100 µM: Plasmodium falciparum, read-out: Primary screening, parasite growth relative to the negative control; for activity at 1 µM: 3D7, compound at 1 µM; for activity at 10 µM: 3D7, compound at 10 µM; for activity at 100 µM: 3D7, compound at 100 µM
Procedure: (§4) Apicomplexan parasite cultures were maintained at 3% hematocrit under an atmosphere of 37 °C in 93% N2, 5% CO2, and 2% O2, following standard methods. Synchronized cultures were obtained via 5% sorbitol lysis.
[…] Conditions were tested in triplicate for every concentration, and the test was repeated when the standard deviation was above 10% for any concentration. Z-values varied between 0.83 and 0.98 in the different plates analyzed. Selected compounds (12.3% potential hit rate) were further analyzed via standard growth inhibition assays, carried out as previously described in [54]. Briefly, parasitemia was adjusted to 1–1.3%, with >90% rings after sorbitol synchronization. Two hundred microliters of parasite culture were plated in 96-well microplates and incubated for 48 h at 37 °C in the presence of decreasing concentrations of the tested compounds, in triplicate. Parasitemia was determined by fluorescence-assisted cell sorting (FACS). Non-infected RBCs and samples containing parasitized RBCs (including controls with DMSO as carrier solvent) were diluted in PBS to a final concentration of ~1–10 × 10^6 cells/mL. The cell suspension was stained with SYTO 11 (0.5 mM stock in DMSO, Thermo Fisher Scientific, Waltham, MA, USA), to a final concentration of 0.5 μM. Samples were analyzed in a Becton Dickinson FACSCalibur. Sample excitation was carried out using a 488-nm, air-cooled argon-ion laser at a power of 15 mW, using forward and side scatter to gate the RBC population, and SYTO 11 green fluorescence (530 nm, FITC filter) was collected in a logarithmic scale. The single-cell population was selected on a forward–side scattergram, and the green fluorescence from this population was analyzed. Parasitemia was expressed as the number of parasitized cells per 100 erythrocytes.
as §3

Vero cells = test: Vero cell toxicity assay (alamarBlue); type: cell-based, green monkey; settings: 4 days; minimum value of the 95% CI, except BNZ (mean (SD))
Procedure: Human erythrocytes were purified from B+ Rh+ blood samples and maintained at 4 °C in incomplete RPMI medium. Vero (green monkey kidney epithelial cells), LLC-MK2 (Rhesus monkey kidney epithelial cells), and HepG2 (human liver epithelial cells) cultures were cultivated in DMEM supplemented with 1% penicillin–streptomycin (PS) and 10% heat-inactivated fetal bovine serum (FBS) at 37 °C, 5% CO2, and >95% humidity, as described in [31]. HepG2 cells were also supplemented with 10% non-essential amino acids. Vero and MK2 cells were passaged twice per week at 1:12 ratios, while HepG2 cells were passaged at a 1:8 ratio.
Vero and HepG2 cells were detached, centrifuged, and resuspended in DMEM without phenol red. Cell viability was checked upon cell counting with trypan blue staining. Then, Vero and HepG2 cells were diluted at a concentration of 5 × 10^5 and 3.2 × 10^5 cells per mL, respectively, before adding 100 µL per well to the 96-well plate. Each run contained its own negative (untreated cells) and positive (medium alone) controls. Plates were incubated at 37 °C for 4 days in the case of Vero, or 2 in the case of HepG2 cells. Assay readout was made by adding 50 µL per well of a PBS solution containing 10% alamarBlue reagent (Thermo Fisher Scientific); then, plates were incubated for another 6 h at 37 °C, before recording the fluorescence intensity with a Tecan Infinite M Nano+ reader (excitation: 530 nm, emission: 590 nm).
as §3

[4] = test system: T. cruzi Tulahuen strain expressing β-galactosidase; test: T. cruzi primary screening at three fixed concentrations; type: cell-based; settings: for activity at 100 µM / activity at 1 µM / activity at 10 µM: Trypanosoma cruzi, TULAHUEN; for activity at 100 µM: read-out: Primary screening, growth inhibition values at 100 µM; for activity at 1 µM: read-out: Primary screening, growth inhibition values at 1 µM; for activity at 10 µM: read-out: Primary screening, growth inhibition values at 10 µM
Procedure: as §1
as §2, with “T. cruzi growth was primarily analyzed under three different concentrations (100, 10, and 1 mM) of the 81 compounds.” left out
as §3

P. falciparum 3D7 [5] = test: P. falciparum dose-response growth inhibition assay (FACS, SYTO 11); type: cell-based; settings: P. falciparum 3D7, 48 h, mean (SD)
Procedure: as §4
P. falciparum growth was primarily analyzed under 3 different concentrations ([…]) of the 81 compounds. Conditions were tested in triplicate for every concentration, and the test was repeated when the standard deviation was above 10% for any concentration. Z-values varied between 0.83 and 0.98 in the different plates analyzed. Selected compounds (12.3% potential hit rate) were further analyzed via standard growth inhibition assays, carried out as previously described in [54]. Briefly, parasitemia was adjusted to 1–1.3%, with >90% rings after sorbitol synchronization. Two hundred microliters of parasite culture were plated in 96-well microplates and incubated for 48 h at 37 °C in the presence of decreasing concentrations of the tested compounds, in triplicate. Parasitemia was determined by fluorescence-assisted cell sorting (FACS). Non-infected RBCs and samples containing parasitized RBCs (including controls with DMSO as carrier solvent) were diluted in PBS to a final concentration of ~1–10 × 10^6 cells/mL. The cell suspension was stained with SYTO 11 (0.5 mM stock in DMSO, Thermo Fisher Scientific, Waltham, MA, USA), to a final concentration of 0.5 μM. Samples were analyzed in a Becton Dickinson FACSCalibur. Sample excitation was carried out using a 488-nm, air-cooled argon-ion laser at a power of 15 mW, using forward and side scatter to gate the RBC population, and SYTO 11 green fluorescence (530 nm, FITC filter) was collected in a logarithmic scale. The single-cell population was selected on a forward–side scattergram, and the green fluorescence from this population was analyzed. Parasitemia was expressed as the number of parasitized cells per 100 erythrocytes.
as §3

[6] = Vero cells plus trypomastigotes, MOI 1, four days, mean (SD), read-out: T. cruzi IC50 a (anti-T. cruzi assay)
[7] = compound at 1 µM, average of at least three independent experiments
[8] = compound at 10 µM, average of at least three independent experiments
[9] = Plasmodium falciparum, 3D7, 48 h

SMILES	IC50 [1, 6]	IC50 [2]	Primary screening, parasite growth relative to the negative control (P. falciparum 3D7 [3]; compound at 1 µM)	Primary screening, parasite growth relative to the negative control (P. falciparum 3D7 [3]; compound at 10 µM)	Primary screening, parasite growth relative to the negative control (P. falciparum 3D7 [3]; compound at 100 µM)	Vero Cells TC50 (Vero cells)	activity at 100 µM [4]	activity at 1 µM [4, 7]	activity at 10 µM [4, 8]	IC50 (P. falciparum 3D7 [5])	IC50 (P. falciparum 3D7 [5]; [9])	activity at 1 µM (P. falciparum 3D7 [3])	activity at 10 µM (P. falciparum 3D7 [3])	activity at 100 µM (P. falciparum 3D7 [3])	Primary screening, growth inhibition values at 1 µM [4, 7]	Primary screening, growth inhibition values at 10 µM [4, 8]	IC50 ([1]; Trypanosoma cruzi, TULAHUEN, Vero, anti-T. cruzi IC50 of non-progressed compounds, read-out: Dose-response assay IC50)
COc1cccc(-n2cc(COc3ncnc4c3ncn4N3CCN(C)CC3)nn2)c1 [Compound 94]	0.92 µM	75.1 µM	128.84%	125.18%	104.00%	>60 µM	–	–	–	–	–	–	–	–	–	–	–
C#CCOc1ncnc2c1ncn2N1CCN(C)CC1 [Compound 93]	1.42 µM	218 µM	107.86%	104.00%	105.52%	>2000 µM	–	–	–	–	–	–	–	–	–	–	–
COc1ccccc1-n1cc(COc2ncnc3c2nc(-c2ccccc2)n3N(C)C)nn1 [Compound 33]	–	–	–	–	–	>300 µM	21.5%	91.5%	63.3%	19.2 µM	~20 µM	96.3%	85.4%	22.5%	–	–	–
CN1CCN(n2c(-c3ccccc3)nc3c(OCc4cn(Cc5cscn5)nn4)ncnc32)CC1 [Compound 84]	–	–	96.34%	88.61%	13.94%	>70 µM	–	–	–	28 µM	–	–	–	–	93.615	93.94	–
CC(C)(C)Nc1ncnc2c1nc(-c1ccccc1)n2C(C)(C)C [Compound 1B]	–	–	–	–	–	–	12.7%	96.3%	93%	–	–	112%	108%	69.5%	–	–	68.4 µM
c1ccc(-c2nc3c(OCc4cn(Cc5cscn5)nn4)ncnc3n2N2CCCCC2)cc1 [Compound 76]	–	–	–	–	–	>500 µM	49.8%	89.4%	88.2%	18.3 µM	~20 µM	95.7%	84.3%	15.2%	–	–	–
COc1cccc(-n2cc(COc3ncnc4c3ncn4C(C)(C)C)nn2)c1 [Compound 88]	12.7 µM	35.4 µM	92.13%	81.69%	21.43%	>180 µM	–	–	–	65.3 µM	–	–	–	–	–	–	–
